Data taken from patent US6734196B2, “Substituted pyridine or piperidine compounds” (Les Laboratoires Servier, priority 1999, dated 2004).

Row | Compound | melting point [°C]
1 | Cc1ccc(C(=O)CC2CCCC(CC(=O)c3ccccc3)N2C)cc1.I (centres unmarked) | 192 to 193
2 | C[n+]1ccccc1C1CCCCC1=O.[I-] (centres unmarked) | 151 to 153
3 | C[n+]1c(CC(=O)c2ccc(Cl)cc2)cccc1CC(=O)c1ccc(Br)cc1.[I-] | 226 to 227
4 | COc1ccc(C(=O)Cc2cccc[n+]2C)cc1.F[P-](F)(F)(F)(F)F | 168 to 170
5 | CN1C(CC(=O)c2ccc(Cl)cc2)CCCC1CC(=O)c1ccc(Br)cc1.I (centres unmarked) | 200 to 202
6 | CN1CCCCC1CC(=O)c1cccc(Br)c1.I (centres unmarked) | 134 to 136
7 | CN1CCCCC1CC(=O)c1ccccc1Br.I (centres unmarked) | 163.5 to 164
8 | CN1CCCCC1CC(=O)c1ccc(Br)cc1.I (centres unmarked) | 182 to 184
9 | COc1ccc(C(=O)Cc2cccc(CC(=O)c3ccc(F)cc3)[n+]2C)cc1.O=S(=O)([O-])C(F)(F)F | 208 to 210
10 | COc1ccc(C(=O)Cc2cccc(CC(=O)c3ccccc3)[n+]2C)cc1.[I-] | 203 to 205
11 | CN1CCCCC1C1CCCCC1=O.I (centres unmarked) | 160 to 162
12 | COc1ccc(C(=O)Cc2cccc[n+]2C)cc1.[I-] | 214 to 216
13 | CN1C(CC(=O)c2ccccc2)CCCC1CC(=O)c1ccc(Cl)cc1.I (centres unmarked) | 152 to 154
14 | C[n+]1ccccc1CC(=O)c1ccc(Br)cc1.[I-] | 222 to 224
15 | C[n+]1c(CC(=O)c2ccc(Cl)cc2)cccc1CC(=O)c1ccc(Br)cc1.O=S(=O)([O-])C(F)(F)F | 226 to 228
16 | C[n+]1ccccc1CC(=O)c1ccccc1Br.[I-] | 204 to 205
17 | C[n+]1c(CC(=O)c2ccccc2)cccc1CC(=O)c1ccc(Br)cc1.[I-] | 218 to 220
18 | C[n+]1c(C=C(c2ccccc2)N2CCOCC2)cccc1N1CCOCC1.[I-] | 214 to 216

Second part, the molecule after the results:

Row | melting point [°C] | Compound
19 | 185 to 187 | C[n+]1ccccc1CC(=O)c1ccc(Br)cc1.F[P-](F)(F)(F)(F)F
20 | 212 to 214 | C[n+]1ccccc1CC(=O)c1ccc(Cl)cc1.[I-]
21 | 200 to 202 | C[n+]1ccccc1C=C(c1ccccc1)N1CCCC1.[I-]
22 | 205 to 206 | Cc1ccc(C(=O)Cc2cccc(CC(=O)c3ccccc3)[n+]2C)cc1.[I-]
23 | 152 to 154 | C[n+]1ccccc1CC(=O)c1ccc(Cl)cc1.F[P-](F)(F)(F)(F)F
24 | 197 to 199 | C[n+]1c(CC(=O)c2ccccc2)cccc1CC(=O)c1ccccc1.[I-]
25 | 213 to 215 | C[n+]1c(CC(=O)c2ccccc2)cccc1CC(=O)c1ccc(Cl)cc1.[I-]
26 | 199 to 201 | C[n+]1c(CC(=O)c2ccccc2)cccc1CC(=O)c1ccc(Cl)cc1.O=S(=O)([O-])C(F)(F)F
27 | 220 to 222 | C[n+]1c(CC(=O)c2ccccc2)cccc1CC(=O)c1ccc(F)cc1.[I-]
28 | 193 to 195 | COc1ccc(C(=O)Cc2cccc(CC(=O)c3ccccc3)[n+]2C)cc1.O=S(=O)([O-])C(F)(F)F
29 | 152 to 154 | CN1C(CC(=O)c2ccccc2)CCCC1CC(=O)c1ccc(F)cc1.I (centres unmarked)
30 | 217 to 218 | C[n+]1ccccc1CC(=O)c1cccc(Br)c1.[I-]
31 | 201 to 203 | COc1ccc(C(=O)CC2CCCCN2C)cc1.I (centres unmarked)
32 | 219 to 220 | COc1ccc(C(=O)Cc2cccc(CC(=O)c3ccc(F)cc3)[n+]2C)cc1.[I-]
